Assay results from article PMC6219668 (Oncotarget, 2018).

System: panel of nearly 500 cancer cell lines
Test: Cancer Cell Line Encyclopedia profiling, 3-day CellTiter-Glo
Format: cell-based
Conditions: Homo sapiens

CN(C)C(=O)c1cc2cnc(Nc3ccc(N4CCNCC4)cn3)nc2n1C1CCCC1 [Ribociclib, 7-cyclopentyl-2-(5-piperazin-1-yl-pyridin-2-ylamino)-7H-pyrrolo[2,3-d]pyrimidine-6-carboxylic acid dimethylamide]
3.42 µM: EC50 (LS-411N)
1.71 µM: IC50 (LS-411N)
0.392 µM: EC50 (MEG-01)
2.66 µM: EC50 (NCI-H1155)
0.839 µM: EC50 (MES-SA)
6.86 µM: EC50 (NCI-H358)
0.564 µM: EC50 (Lu-99)
0.456 µM: IC50 (MINO)
1.84 µM: EC50 (HT1197)
0.287 µM: EC50 (IMR-32)
0.934 µM: EC50 (KNS-62)
1.37 µM: IC50 (MCF7)
3.75 µM: EC50 (Jurkat)
0.239 µM: EC50 (MG-63)
0.163 µM: EC50 (MFE-296)
> 8 µM: EC50 (HPAF-II) | IC50 (HPAF-II) | EC50 (HSC-2) | IC50 (HSC-2) | IC50 (HT1197) | EC50 (HT-29) | EC50 (HT-144) | IC50 (HT-144) | IC50 (HT-1080) | IC50 (HepG2) | IC50 (Hs 294T) | EC50 (Hs 683) | IC50 (Hs 683) | EC50 (Hs 695T) | IC50 (Hs 695T) | IC50 (Hs746T) | EC50 (Hs-578T) | IC50 (Hs-578T) | EC50 (HuCCT-1) | IC50 (HuCCT-1) | EC50 (HuH-1) | IC50 (HuH-1) | EC50 (HuP-T3) | IC50 (HuP-T3) | EC50 (HuT78) | IC50 (HuT78) | IC50 (IGR-37) | EC50 (IGROV-1) | IC50 (IGROV-1) | EC50 (IM95) | IC50 (IM95) | EC50 (JVM-3) | IC50 (JVM-3) | EC50 (KALS-1) | IC50 (KALS-1) | IC50 (KARPAS-299) | EC50 (KARPAS-422) | IC50 (KARPAS-422) | EC50 (KCL-22) | IC50 (KMS-11) | EC50 (KMS-12-BM) | IC50 (KMS-12-BM) | IC50 (KNS-42) | IC50 (KNS-62) | IC50 (KU812) | EC50 (KYSE-30) | IC50 (KYSE-30) | IC50 (KYSE-140) | IC50 (KYSE-150) | IC50 (KYSE-180) | EC50 (KYSE-410) | IC50 (KYSE-410) | EC50 (KYSE-450) | IC50 (KYSE-450) | EC50 (KYSE-510) | IC50 (KYSE-510) | IC50 (KYSE-520) | IC50 (L-363) | IC50 (L-428) | EC50 (LCLC-103H) | IC50 (LCLC-103H) | EC50 (LN-18) | IC50 (LN-18) | EC50 (LN-229) | IC50 (LN-229) | IC50 (LOX IMVI) | EC50 (LS-123) | IC50 (LS-123) | EC50 (LS-513) | IC50 (LS-513) | EC50 (M059J) | IC50 (M059J) | EC50 (MC116) | IC50 (MC116) | EC50 (MDA-MB-157) | IC50 (MDA-MB-157) | EC50 (MDA-MB-175-VII) | IC50 (MDA-MB-175-VII) | EC50 (MDA-MB-415) | IC50 (MDA-MB-415) | EC50 (MDA-MB-436) | IC50 (MDA-MB-436) | IC50 (MDA-MB-453) | IC50 (MDA-MB-468) | EC50 (MEC1) | IC50 (MEC1) | IC50 (MEG-01) | IC50 (MES-SA) | EC50 (MFE-280) | IC50 (MFE-280) | IC50 (MG-63) | EC50 (MKN-7) | IC50 (MKN-7) | IC50 (MKN-45) | EC50 (MKN-74) | IC50 (MKN-74) | EC50 (MOLP-8) | IC50 (MOLP-8) | EC50 (MSTO-211H) | IC50 (MSTO-211H) | IC50 (Malme-3M) | EC50 (NCI-H23) | IC50 (NCI-H23) | EC50 (NCI-H28) | IC50 (NCI-H211) | EC50 (NCI-H226) | IC50 (NCI-H226) | IC50 (NCI-H358) | IC50 (NCI-H441) | EC50 (NCI-H460) | IC50 (NCI-H460) | EC50 (NCI-H520) | IC50 (NCI-H520) | EC50 (NCI-H522) | IC50 (NCI-H522) | EC50 (NCI-H647) | IC50 (NCI-H647) | IC50 (NCI-H650) | EC50 (NCI-H661) | IC50 (NCI-H661) | IC50 (NCI-H727) | EC50 (NCI-H747) | IC50 (NCI-H747) | EC50 (NCI-H810) | IC50 (NCI-H810) | EC50 (NCI-H1048) | IC50 (NCI-H1048) | EC50 (NCI-H1092) | IC50 (NCI-H1092) | IC50 (NCI-H1155) | IC50 (NCI-H1299) | IC50 (NCI-H1355) | EC50 (NCI-H1373) | IC50 (NCI-H1373) | EC50 (NCI-H1563) | IC50 (NCI-H1563) | EC50 (NCI-H1573) | IC50 (NCI-H1573) | EC50 (NCI-H1581) | IC50 (NCI-H1581) | EC50 (NCI-H1648) | IC50 (NCI-H1648) | EC50 (NCI-H1650) | IC50 (NCI-H1650) | EC50 (NCI-H1651) | IC50 (NCI-H1651) | EC50 (NCI-H1666)
0.343 µM: EC50 (MCF7)
1.56 µM: IC50 (IMR-32)
0.347 µM: EC50 (MDA-MB-468)
0.436 µM: EC50 (Hs746T) | EC50 (KYSE-140)
1.06 µM: EC50 (NCI-H727)
2.24 µM: EC50 (HuP-T4)
0.848 µM: IC50 (MFE-296)
5.83 µM: IC50 (HT-29)
0.00254 µM: EC50 (Malme-3M)
0.23 µM: EC50 (MKN-45)
1.51 µM: EC50 (NCI-H1299)
2.43 µM: EC50 (NCI-H650)
0.134 µM: EC50 (KNS-42)
0.337 µM: EC50 (NCI-H441)
5.57 µM: IC50 (MIA PaCa-2)
1.2 µM: EC50 (KYSE-70)
6.06 µM: EC50 (KYSE-520)
0.166 µM: EC50 (MDA-MB-453)
2.03 µM: EC50 (L-428)
0.231 µM: EC50 (HepG2)
1.04 µM: EC50 (L-363)
0.207 µM: EC50 (IGR-37) | EC50 (MDA-MB-435S)
4.3 µM: IC50 (HuP-T4)
0.507 µM: EC50 (KYSE-180)
0.471 µM: EC50 (NCI-H1355)
0.266 µM: EC50 (MINO)
5.61 µM: IC50 (KYSE-70)
0.233 µM: EC50 (KMS-11)
2.73 µM: EC50 (HT-1080)
2.36 µM: EC50 (MIA PaCa-2)
6.1 µM: IC50 (NCI-H28)
4.66 µM: EC50 (Hs 294T)
0.368 µM: EC50 (NCI-H211)
0.775 µM: IC50 (MDA-MB-435S)
0.878 µM: EC50 (KARPAS-299)
3.69 µM: IC50 (Jurkat) | IC50 (Lu-99)
2.57 µM: EC50 (MeWo) | IC50 (MeWo)
6.12 µM: IC50 (KCL-22)
2.92 µM: EC50 (KYSE-150) | EC50 (LOX IMVI)
